IC50 data for seven compounds are collected here from patent US20170217946A1, “AMINO-SUBSTITUTED ISOXAZOLES” (Bayer Pharma Aktiengesellschaft, priority 2014, published 2017).

One assay has as its system HeLa cells. In words: Proliferation assay (crystal violet). It is filed as cell-based. The conditions noted are these: Homo sapiens, 96 h, 4 days incubation, read-out: Inhibition of proliferation HeLa IC50. Here is the method: Cultivated tumor cells (cells were ordered from ATCC, except HeLa-MaTu and HeLa-MaTu-ADR, which were ordered from EPO-GmbH, Berlin) were plated at a density of 1000 to 5000 cells/well, depending on the growth rate of the respective cell line, in a 96-well multititer plate in 200 μL of their respective growth medium supplemented 10% fetal calf serum. After 24 hours, the cells of one plate (zero-point plate) were stained with crystal violet (see below), while the medium of the other plates was replaced by fresh culture medium (200 μl), to which the test substances were added in various concentrations (0 μM, as well as in the range of 0.001-10 μM; the final concentration of the solvent dimethyl sulfoxide was 0.5%). The cells were incubated for 4 days in the presence of test substances. Cell proliferation was determined by staining the cells with crystal violet: the cells were fixed by adding 20 μl/measuring point of an 11% glutaric aldehyde solution for 15 minutes at room temperature. After three washing cycles of the fixed cells with water, the plates were dried at room temperature. The cells were stained by adding 100 μl/measuring point of a 0.1% crystal violet solution (pH 3.0). After three washing cycles of the stained cells with water, the plates were dried at room temperature. The dye was dissolved by adding 100 μl/measuring point of a 10% acetic acid solution. Absorption was determined by photometry at a wavelength of 595 nm. The change of cell number, in percent, was calculated by normalization of the measured values to the absorption values of the zero-point plate (=0%) and the absorption of the untreated (0 μm) cells (=100%). The IC50 values were determined by means of a 4 parameter fit.

For another assay, the target named is T1, human Bub1 (Homo sapiens, UniProt O43683).
T1 construct: catalytic domain of human Bub1 (amino acids 704-1085); His6 (N); made in house; host or cells: insect cells (Hi5)
In words: Bub1 kinase assay (TR-FRET). Format: biochemical. The conditions noted are these: 10 μM ATP. The text has this: Bub1-inhibitory activity of compounds of the present invention was quantified employing the Bub1 TR-FRET assay as described in the following paragraphs.
N-terminally His6-tagged recombinant catalytic domain of human Bub1 (amino acids 704-1085), expressed in insect cells (Hi5) and purified by Ni-NTA affinity chromatography and subsequent size exclusion chromatography, was used as enzyme. As substrate for the kinase reaction the biotinylated peptide biotin-Ahx-VLLPKKSFAEPG (C-terminus in amid form) was used which can be purchased e.g. form the company Biosyntan (Berlin, Germany).
For the assay 50 nl of a 100 fold concentrated solution of the test compound in DMSO was pipetted into a black low volume 384 well microtiter plate (Greiner Bio-One, Frickenhausen, Germany), 2 μl of a solution of Bub1 in aqueous assay buffer [50 mM Tris/HCl pH 7.5, 10 mM magnesium chloride (MgCl2), 200 mM potassium chloride (KCl), 1.0 mM dithiothreitol (DTT), 0.1 mM sodium ortho-vanadate, 1% (v/v) glycerol, 0.01% (w/v) bovine serum albumine (BSA), 0.005% (v/v) Trition X-100 (Sigma), 1× Complete EDTA-free protease inhibitor mixture (Roche)] were added and the mixture was incubated for 15 min at 22° C. to allow pre-binding of the test compounds to the enzyme before the start of the kinase reaction. Then the kinase reaction was started by the addition of 3 μl of a solution of adenosine-tri-phosphate (ATP, 16.7 μM=>final conc. in the 5 μl assay volume is 10 μM) and substrate (1.67 μM=>final conc. in the 5 μl assay volume is 1 μM) in assay buffer and the resulting mixture was incubated for a reaction time of 60 min at 22° C. The concentration of Bub1 was adjusted depending of the activity of the enzyme lot and was chosen appropriate to have the assay in the linear range, typical concentrations were in the range of 200 ng/ml. The reaction was stopped by the addition of 5 μl of a solution of TR-FRET detection reagents (0.2 μM streptavidine-XL665 [Cisbio Bioassays, Codolet, France] and 1 nM anti-phosho-Serine antibody [Merck Millipore, cat. #35-001] and 0.4 nM LANCE EU-W1024 labeled anti-mouse IgG antibody [Perkin-Elmer, product no. AD0077, as an alternative a Terbium-cryptate-labeled anti-mouse IgG antibody from Cisbio Bioassays can be used]) in an aqueous EDTA-solution (50 mM EDTA, 0.2% (w/v) bovine serum albumin in 100 mM HEPES pH 7.5).
The resulting mixture was incubated 1 h at 22° C. to allow the formation of complex between the phosphorylated biotinylated peptide and the detection reagents. Subsequently the amount of phosphorylated substrate was evaluated by measurement of the resonance energy transfer from the Eu-chelate to the streptavidine-XL. Therefore, the fluorescence emissions at 620 nm and 665 nm after excitation at 350 nm was measured in a TR-FRET reader, e.g. a Rubystar or Pherastar (both from BMG Labtechnologies, Offenburg, Germany) or a Viewlux (Perkin-Elmer). The ratio of the emissions at 665 nm and at […] was taken as the measure for the amount of phosphorylated substrate. The data were normalised (enzyme reaction without inhibitor=0% inhibition, all other assay components but no enzyme=100% inhibition).

T1 sequence (O43683 704-1085): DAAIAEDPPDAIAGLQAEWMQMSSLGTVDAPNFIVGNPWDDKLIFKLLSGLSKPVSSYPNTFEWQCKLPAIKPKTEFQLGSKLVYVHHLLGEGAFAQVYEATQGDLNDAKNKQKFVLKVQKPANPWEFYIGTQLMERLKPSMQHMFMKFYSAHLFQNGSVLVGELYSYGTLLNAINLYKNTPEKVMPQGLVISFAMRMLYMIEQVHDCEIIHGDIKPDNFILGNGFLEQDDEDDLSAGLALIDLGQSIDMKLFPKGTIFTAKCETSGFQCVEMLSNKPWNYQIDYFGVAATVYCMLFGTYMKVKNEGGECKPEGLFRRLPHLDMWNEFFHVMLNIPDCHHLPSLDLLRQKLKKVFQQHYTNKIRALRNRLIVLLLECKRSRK

For the compound `COc1ccc(NC(=O)c2c(C)noc2Nc2cnc(C(F)(F)F)cn2)cn1` [Example 2c, N-(6-methoxypyridin-3-yl)-3-methyl-5-{[5-(trifluoromethyl)pyrazin-2-yl]amino}-1,2-oxazole-4-carboxamide], the IC50 was 2.7 µM in the assay with HeLa cells and more than 20 µM against human Bub1.

For the compound `Cc1noc(Nc2cnc(C(F)(F)F)cn2)c1C(=O)Nc1ccc(OC[C@@H]2CCN(CC(F)(F)F)C2)nc1` [Example 4a, 3-Methyl-N-(6-{[(3R)-1-(2,2,2-trifluoroethyl)pyrrolidin-3-yl]methoxy}pyridin-3-yl)-5-{[5-(trifluoromethyl)pyrazin-2-yl]amino}-1,2-oxazole-4-carboxamide], the IC50 in the assay on HeLa cells is 2.8 µM; against human Bub1, more than 20 µM.

Take `Cc1noc(Nc2cnc(C(F)(F)F)cn2)c1C(=O)Nc1ccc(OC[C@H]2CCN(CC(F)(F)F)C2)nc1` [Example 8a, 3-Methyl-N-(6-{[(3S)-1-(2,2,2-trifluoroethyl)pyrrolidin-3-yl]methoxy}pyridin-3-yl)-5-{[5-(trifluoromethyl)pyrazin-2-yl]amino}-1,2-oxazole-4-carboxamide]: the values for the IC50 with HeLa cells and on human Bub1 were 1.9 µM and more than 20 µM, respectively.

As to `Cc1noc(Nc2cnc(C(F)(F)F)cn2)c1C(=O)Nc1ccc(OC[C@H]2CCN(CCC(F)(F)F)C2)nc1` [Example 9a, 3-Methyl-5-{[5-(trifluoromethyl)pyrazin-2-yl]amino}-N-(6-{[(3S)-1-(3,3,3-trifluoro-propyl)pyrrolidin-3-yl]methoxy}pyridin-3-yl)-1,2-oxazole-4-carboxamide], the IC50 in the assay on HeLa cells was 3.1 µM; on human Bub1 it was more than 20 µM.

Consider `Cc1noc(Nc2cnc(C(F)(F)F)cn2)c1C(=O)Nc1ccc(OC[C@@H]2CCN(CC(F)F)C2)nc1` [Example 3a, N-(6-{[(3R)-1-(2,2-difluoroethyl)pyrrolidin-3-yl]methoxy}pyridin-3-yl)-3-methyl-5-{[5-(trifluoromethyl)pyrazin-2-yl]amino}-1,2-oxazole-4-carboxamide], for which the results for the IC50 in the assay on HeLa cells and at human Bub1 were 3.4 µM and more than 20 µM, respectively.

Consider `Cc1noc(Nc2cnc(C(F)(F)F)cn2)c1C(=O)Nc1ccc(OC[C@H]2CCN(CC(F)F)C2)nc1` [Example 7a, N-(6-{[(3S)-1-(2,2-difluoroethyl)pyrrolidin-3-yl]methoxy}pyridin-3-yl)-3-methyl-5-{[5-(trifluoromethyl)pyrazin-2-yl]amino}-1,2-oxazole-4-carboxamide], for which the values for the IC50 in the assay with HeLa cells and at human Bub1 were 4 µM and more than 20 µM, respectively.

For `Cc1noc(Nc2cnc(C(F)(F)F)cn2)c1C(=O)Nc1ccc(OC[C@@H]2CCN(CCC(F)(F)F)C2)nc1` [Example 5a, 3-Methyl-5-{[5-(trifluoromethyl)pyrazin-2-yl]amino}-N-(6-{[(3R)-1-(3,3,3-trifluoro-propyl)pyrrolidin-3-yl]methoxy}pyridin-3-yl)-1,2-oxazole-4-carboxamide], the values for the IC50 with HeLa cells and against human Bub1 were 3.3 µM and more than 20 µM, respectively.
